Experimental data from patent publication US20250000874A1, “BACTERIAL METABOLITES AND THEIR USE IN REDUCING INFLAMMATION” (LOYOLA UNIVERSITY OF CHICAGO, priority 2023, published 2025).

What was measured:
NLRP3 inflammasome = assay: JE on IL-1β production and caspase-1 activation by BMDMs upon NLRP3 activation; format: cell-based, mouse; conditions: for IL-1β production upon NLRP3 activation with ATP: 5 mM ATP
Procedure: (§1) FIG. 19. The Effect of JE on IL-1β Production by BMDMs Upon NLRP3 Activation. Macrophages were pretreated with the metabolite JE at a concentration of 50 μM overnight at 37° C., 5% CO2. The following day, macrophages were primed with LPS at 500 ng/ml for 4 hours and then activated by ATP for 1 hour at 37° C., 5% CO2. Another approach is to prime the cells with 10 ng/ml LPS for 4 hours, then pretreat with JE overnight. The following day, macrophages were activated with 5 mM ATP for an hour at 37° C., 5% CO2. Supernatants were collected, and […] was measured using ELISA. Data are presented as mean±SEM (n=6). **p<0.01. One of three experiments is shown.
as §1, with “20.” for “19.”
FIG. 21. The Impact of JE on Caspase-1 Activation After Priming the Cells with LPS. BMDMs were cultured and seeded as described before. Macrophages were first primed with LPS for 4 hours at 37° C. with 5% CO2. After that, they were treated with the metabolite JE for 1 (LPS1ATP), 2 (LPS2ATP), and 3 (LPS3ATP) hours. Then, the cells were exposed to media containing 5 mM ATP for 1 hour at 37° C. with 5% CO2. Finally, the supernatants were collected and the level of IL-1β was measured using ELISA. Data are presented as mean±SEM (n=6). *p<0.05; ***p<0.001. One of two experiments is shown.
Next, we explored how JE inhibits caspase-1 activation as well as IL-1β production. As stated above, NLRP3 activation adopts a two-step dogma: priming with LPS, followed by activation by ATP, nigericin, or MSU crystals. […] To achieve that, JE was used to pretreat BMDMs overnight at 37° C., 5% CO2; the next day, macrophages were primed with LPS for 4 hours, then stimulated with ATP for an hour. I collected the supernatant and measured IL-1β by ELISA.
In an attempt to determine whether JE inhibits the priming or the activation step, BMDMs were stimulated with LPS, then the metabolite JE was used to treat the cells overnight at 37° C., 5% CO2. The following day, macrophages were stimulated with ATP for an hour, then, supernatant was collected to measure IL-1β by ELISA. PBS was used as a control to JE in this experiment. In both conditions, I did a western blot on caspase-1 to elucidate whether JE inhibits caspase-1 activation or not.
It was also evident by the absence of active caspase-1 in the supernatant on western blot analysis (data not shown). To determine whether JE inhibits the activation signal, instead of pretreating the macrophages with JE overnight. BMDMs were treated with the metabolite JE for 1 hour, 2 hours, and 3 hours after priming with LPS for 4 hours; then 5 mM of ATP was.

[1] = tested on: phosphorylated NFκB (ser536); assay: NC on phospho-NFκB (ser536) levels in stimulated Raw 264.7 macrophages; format: cell-based, mouse
Procedure: FIG. 31. Compound NC on phospho-NFκB (ser536) levels in stimulated macrophages. Raw 264.7 macrophages were incubated with 50 μM of NC for 18 hours prior to stimulation with LPS or Poly I:C. Whole cell lysates were collected after 2 hours and the level of phosphorylated NFκB (Phosphoserine 536) was quantified for endpoint absorbance at […] and normalized to absorbance of untreated, unstimulated cells. Mean and p values were computed using R base and dplyr packages using normalized values.
TRIF can participate in TNFα signaling through two distinct mechanisms. Firstly, TRIF can signal NFκB through TRAF6 to increase TNFα transcription. Secondly, TRIF activation can enhance the translation of TNFα mRNA through prolonged MK-2 activation. To determine whether NC reduces TNFα release by blocking TNFα transcription or translation, we collected cell lysates and quantified the levels of phosphorylated NFκB (ser536). Lysates of Raw 264.7 cells treated with NC prior to stimulation with LPS or Poly I:C contained more phosphorylated NFκB (ser536) than untreated cells (FIG. 31). There was no difference in phosphorylated NFκB (ser536) in unstimulated cells treated with NC.

`CC(=O)O[C@@H]1CC[C@H]2[C@H]3CC[C@H]4CC(F)(F)CC[C@]4(C)[C@H]3CC[C@]12C` [JE, 3,3-Difluoro-5-alpha-androstan-17-beta-yl acetate] was tested, and the “IL-β upon activation of NLRP3 inflammasome” value (NLRP3 inflammasome; JE 50 μM pretreatment overnight, LPS priming 4 hours, ATP 1 hour) was “completely abolished”, the “IL-1β production upon NLRP3 activation with ATP” value (NLRP3 inflammasome; JE for 1 hour after priming with LPS 4 hours) was “did not have the same effect” and the “IL-1β production upon NLRP3 activation with ATP” value (NLRP3 inflammasome; JE for 2 hours after priming with LPS 4 hours) was “did not have the same effect”. For the same compound, the “IL-1β production upon NLRP3 activation with ATP” value (NLRP3 inflammasome; JE for 3 hours after priming with LPS 4 hours) was “significantly decrease” and the “active caspase-1 in the supernatant (western blot)” value (NLRP3 inflammasome; JE pretreatment, LPS priming, ATP) was “absence”.
In the case of `CCCCCCCCCCCCCCCC(=O)N[C@@H](C(=O)O)[C@H](C)O` [NC, N-Palmitoyl-D-Threonine], the “phosphorylated NFκB (ser536) level” value ([1]; 50 μM NC 18 hours, LPS, lysates after 2 hours) is reported as “more and significantly decreases”, the “phosphorylated NFκB (ser536) level” value ([1]; 50 μM NC 18 hours, Poly I:C, lysates after 2 hours) is reported as “more and significantly decreases” and the “phosphorylated NFκB (ser536) level” value ([1]; NC, unstimulated cells) is reported as “no difference”.
